# Data published in US8901133B2, “Heterocyclic compounds and uses thereof” (Infinity Pharmaceuticals, Inc., priority 2010, dated 2014).
# Biological target: T1, PI3Kδ (Homo sapiens, UniProt O00329)
# T1 construct: purchased Millipore Corporation 14-604-K
# Experiment: PI3 Kinase HTRF assay, PI3Kδ
# Type: biochemical
# Settings: 10 μM PIP2, 10 μM ATP; read-out: PI3K δ IC50
# Procedure, shortened: (§1)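 Time-resolved FRET kit assay measuring PIP3 made from 10 μM PIP2, ATP 10 μM, 1 h room temperature. IC50 fitted from 12-point dose-response.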
# T1 sequence (O00329 whole entry): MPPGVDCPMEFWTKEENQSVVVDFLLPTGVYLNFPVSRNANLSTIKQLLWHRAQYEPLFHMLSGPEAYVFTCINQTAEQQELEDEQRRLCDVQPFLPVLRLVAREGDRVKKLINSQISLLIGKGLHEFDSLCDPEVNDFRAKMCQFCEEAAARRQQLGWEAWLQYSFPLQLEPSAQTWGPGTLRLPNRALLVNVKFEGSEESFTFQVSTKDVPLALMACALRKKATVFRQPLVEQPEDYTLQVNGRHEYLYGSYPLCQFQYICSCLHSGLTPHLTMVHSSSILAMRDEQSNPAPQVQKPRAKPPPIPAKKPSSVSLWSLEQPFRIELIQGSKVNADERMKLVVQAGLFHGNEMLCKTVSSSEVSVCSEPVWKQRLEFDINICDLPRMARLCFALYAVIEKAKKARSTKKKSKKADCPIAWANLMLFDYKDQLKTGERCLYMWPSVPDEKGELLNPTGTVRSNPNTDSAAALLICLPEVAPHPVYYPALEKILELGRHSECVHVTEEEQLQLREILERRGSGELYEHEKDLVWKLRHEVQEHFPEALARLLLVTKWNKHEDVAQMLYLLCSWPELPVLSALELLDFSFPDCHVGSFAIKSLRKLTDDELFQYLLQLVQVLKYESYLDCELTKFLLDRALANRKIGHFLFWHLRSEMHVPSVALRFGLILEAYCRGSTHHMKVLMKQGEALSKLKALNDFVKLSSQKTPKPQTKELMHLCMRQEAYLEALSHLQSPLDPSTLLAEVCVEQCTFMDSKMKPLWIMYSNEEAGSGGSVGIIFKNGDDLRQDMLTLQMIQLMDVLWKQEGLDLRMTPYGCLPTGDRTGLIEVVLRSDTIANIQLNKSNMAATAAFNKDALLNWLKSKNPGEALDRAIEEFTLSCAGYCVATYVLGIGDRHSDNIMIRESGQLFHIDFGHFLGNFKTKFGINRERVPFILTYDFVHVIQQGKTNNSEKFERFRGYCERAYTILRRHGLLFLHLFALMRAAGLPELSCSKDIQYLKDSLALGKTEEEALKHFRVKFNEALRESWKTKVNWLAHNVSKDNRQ
# T1 sequence (P27986 whole entry partner): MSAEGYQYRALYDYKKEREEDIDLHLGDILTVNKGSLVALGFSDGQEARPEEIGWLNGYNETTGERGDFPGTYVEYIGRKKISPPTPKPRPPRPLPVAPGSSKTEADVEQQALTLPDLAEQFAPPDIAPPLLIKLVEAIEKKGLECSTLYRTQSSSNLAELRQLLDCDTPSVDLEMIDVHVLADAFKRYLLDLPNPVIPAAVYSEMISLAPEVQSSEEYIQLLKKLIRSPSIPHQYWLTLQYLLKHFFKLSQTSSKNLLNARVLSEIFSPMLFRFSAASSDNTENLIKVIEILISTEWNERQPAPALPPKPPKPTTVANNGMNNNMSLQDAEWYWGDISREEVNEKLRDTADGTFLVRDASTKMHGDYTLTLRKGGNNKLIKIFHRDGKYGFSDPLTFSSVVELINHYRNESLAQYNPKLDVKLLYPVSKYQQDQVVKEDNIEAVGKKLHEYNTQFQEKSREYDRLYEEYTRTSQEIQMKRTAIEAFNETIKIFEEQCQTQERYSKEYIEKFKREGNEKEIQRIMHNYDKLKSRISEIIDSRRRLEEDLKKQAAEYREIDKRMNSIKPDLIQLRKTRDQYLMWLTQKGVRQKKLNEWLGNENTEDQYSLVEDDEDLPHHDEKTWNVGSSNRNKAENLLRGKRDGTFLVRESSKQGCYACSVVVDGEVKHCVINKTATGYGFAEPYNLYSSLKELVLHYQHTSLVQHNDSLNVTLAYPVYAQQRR
row,SMILES,IC50 [nM]
1,CC(C)N1CCC(Oc2nc([C@H](C)Nc3ccnc4ccnn34)cc3cccc(Cl)c23)CC1 [Compound 107],< 100
2,CC(C)N1CCC(Oc2nc([C@H](C)Nc3ncnc4cccnc34)cc3cccc(Cl)c23)CC1 [Compound 108],< 100
3,C[C@H](Nc1ncnc2scnc12)c1cc2cccc(Cl)c2c(C(=O)N2CCOCC2)n1 [Compound 116],< 100
4,C[C@H](Nc1ncnc2ccccc12)c1cc2cccc(Cl)c2c(C(=O)N2CCOCC2)n1 [Compound 119],< 100
5,C[C@H](Nc1ccnc2ccnn12)c1cc2cccc(Cl)c2c(C(=O)N2CCOCC2)n1 [Compound 120],< 100
6,C[C@H](Nc1ncnc2scnc12)c1cc2cccc(Cl)c2c(OCCN2CCCC2)n1 [Compound 121],< 100
7,CC(C)N1CCC(Oc2nc([C@H](C)Nc3ncnc4scnc34)cc3cccc(Cl)c23)CC1 [Compound 122],< 100
8,C[C@H](Nc1ncnc2cccnc12)c1cc2cccc(Cl)c2c(C(=O)N2C3CCC2COC3)n1 [Compound 123],< 100
9,C[C@H](Nc1ncnc2scnc12)c1cc2cccc(Cl)c2c(C(=O)N2C3CCC2COC3)n1 [Compound 124],< 100
10,C[C@H](Nc1ccnc2ccnn12)c1cc2cccc(Cl)c2c(C(=O)N2C3CCC2COC3)n1 [Compound 125],< 100
11,C[C@H](Nc1ncnc2[nH]cnc12)c1cc2cccc(Cl)c2c([S+]([O-])CCN2CCOCC2)n1 (stereo partly drawn) [Compound 129],< 100
12,C[C@H](Nc1ncnc2[nH]cnc12)c1cc2cccc(Cl)c2c(SCCN2CCCC2)n1 [Compound 135],< 100
13,C[C@H](Nc1ncnc2[nH]cnc12)c1cc2cccc(Cl)c2c([S+]([O-])CCN2CCCC2)n1 (stereo partly drawn) [Compound 136],< 100
14,C[C@H](Nc1ncnc2scnc12)c1cc2cccc(Cl)c2c(C(=O)NC2CCOCC2)n1 [Compound 144],< 100
15,Cc1cccc2cc([C@H](C)Nc3ncnc4[nH]cnc34)nc(OCCN3CCCC3)c12 [Compound 145],< 100

# Biological target: T2, PI3Kγ (Homo sapiens, UniProt P48736)
# T2 construct: purchased Millipore Corporation 14-558-K
# Experiment: PI3 Kinase HTRF assay, PI3Kγ
# Type: biochemical
# Settings: 10 μM PIP2, 10 μM ATP; read-out: PI3K γ IC50
# Procedure, shortened: as §1
# T2 sequence (P48736 whole entry): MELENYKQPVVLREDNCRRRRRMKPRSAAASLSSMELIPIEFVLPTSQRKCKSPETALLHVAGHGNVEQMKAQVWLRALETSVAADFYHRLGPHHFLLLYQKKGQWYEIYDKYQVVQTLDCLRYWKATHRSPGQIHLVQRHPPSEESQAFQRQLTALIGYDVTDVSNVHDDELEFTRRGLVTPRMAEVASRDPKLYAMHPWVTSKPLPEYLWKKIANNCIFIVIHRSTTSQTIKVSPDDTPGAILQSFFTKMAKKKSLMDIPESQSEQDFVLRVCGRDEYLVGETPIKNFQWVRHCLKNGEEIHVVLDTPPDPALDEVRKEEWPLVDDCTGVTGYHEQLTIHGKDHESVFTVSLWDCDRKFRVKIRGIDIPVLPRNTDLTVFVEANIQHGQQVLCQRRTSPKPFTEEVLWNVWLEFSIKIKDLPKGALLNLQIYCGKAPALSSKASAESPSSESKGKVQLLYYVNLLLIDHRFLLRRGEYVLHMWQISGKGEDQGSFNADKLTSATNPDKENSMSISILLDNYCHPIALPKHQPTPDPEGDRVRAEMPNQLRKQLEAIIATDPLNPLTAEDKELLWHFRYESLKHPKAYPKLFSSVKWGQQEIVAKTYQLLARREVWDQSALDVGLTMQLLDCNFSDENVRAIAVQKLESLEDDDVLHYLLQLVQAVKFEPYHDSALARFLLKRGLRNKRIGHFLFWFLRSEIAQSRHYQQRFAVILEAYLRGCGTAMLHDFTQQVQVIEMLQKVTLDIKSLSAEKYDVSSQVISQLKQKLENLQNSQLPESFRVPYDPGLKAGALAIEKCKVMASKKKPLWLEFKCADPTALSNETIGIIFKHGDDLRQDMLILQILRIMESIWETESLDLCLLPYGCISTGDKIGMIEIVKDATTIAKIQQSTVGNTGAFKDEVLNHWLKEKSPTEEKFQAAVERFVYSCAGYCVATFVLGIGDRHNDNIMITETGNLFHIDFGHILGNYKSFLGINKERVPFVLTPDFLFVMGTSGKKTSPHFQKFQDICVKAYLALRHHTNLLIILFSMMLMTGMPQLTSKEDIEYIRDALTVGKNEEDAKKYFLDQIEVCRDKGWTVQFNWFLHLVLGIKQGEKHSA
row,SMILES,IC50 [nM]
1,CC(C)N1CCC(Oc2nc([C@H](C)Nc3ccnc4ccnn34)cc3cccc(Cl)c23)CC1 [Compound 107],< 10000
2,CC(C)N1CCC(Oc2nc([C@H](C)Nc3ncnc4cccnc34)cc3cccc(Cl)c23)CC1 [Compound 108],< 100
3,C[C@H](Nc1ncnc2scnc12)c1cc2cccc(Cl)c2c(C(=O)N2CCOCC2)n1 [Compound 116],< 1000
4,C[C@H](Nc1ncnc2ccccc12)c1cc2cccc(Cl)c2c(C(=O)N2CCOCC2)n1 [Compound 119],< 1000
5,C[C@H](Nc1ccnc2ccnn12)c1cc2cccc(Cl)c2c(C(=O)N2CCOCC2)n1 [Compound 120],< 1000
6,C[C@H](Nc1ncnc2scnc12)c1cc2cccc(Cl)c2c(OCCN2CCCC2)n1 [Compound 121],< 1000
7,CC(C)N1CCC(Oc2nc([C@H](C)Nc3ncnc4scnc34)cc3cccc(Cl)c23)CC1 [Compound 122],< 10000
8,C[C@H](Nc1ncnc2cccnc12)c1cc2cccc(Cl)c2c(C(=O)N2C3CCC2COC3)n1 [Compound 123],< 1000
9,C[C@H](Nc1ncnc2scnc12)c1cc2cccc(Cl)c2c(C(=O)N2C3CCC2COC3)n1 [Compound 124],< 1000
10,C[C@H](Nc1ccnc2ccnn12)c1cc2cccc(Cl)c2c(C(=O)N2C3CCC2COC3)n1 [Compound 125],< 10000
11,C[C@H](Nc1ncnc2[nH]cnc12)c1cc2cccc(Cl)c2c([S+]([O-])CCN2CCOCC2)n1 (stereo partly drawn) [Compound 129],< 1000
12,C[C@H](Nc1ncnc2[nH]cnc12)c1cc2cccc(Cl)c2c(SCCN2CCCC2)n1 [Compound 135],> 10000
13,C[C@H](Nc1ncnc2[nH]cnc12)c1cc2cccc(Cl)c2c([S+]([O-])CCN2CCCC2)n1 (stereo partly drawn) [Compound 136],< 10000
14,C[C@H](Nc1ncnc2scnc12)c1cc2cccc(Cl)c2c(C(=O)NC2CCOCC2)n1 [Compound 144],< 10000
15,Cc1cccc2cc([C@H](C)Nc3ncnc4[nH]cnc34)nc(OCCN3CCCC3)c12 [Compound 145],> 10000

# Biological target: T3, PI3Kα (Homo sapiens, UniProt P42336)
# T3 construct: purchased Millipore Corporation 14-602-K
# Experiment: PI3 Kinase HTRF assay, PI3Kα
# Type: biochemical
# Settings: 10 μM PIP2, 10 μM ATP; read-out: PI3K α IC50
# Procedure, shortened: as §1
# T3 sequence (P42336 whole entry): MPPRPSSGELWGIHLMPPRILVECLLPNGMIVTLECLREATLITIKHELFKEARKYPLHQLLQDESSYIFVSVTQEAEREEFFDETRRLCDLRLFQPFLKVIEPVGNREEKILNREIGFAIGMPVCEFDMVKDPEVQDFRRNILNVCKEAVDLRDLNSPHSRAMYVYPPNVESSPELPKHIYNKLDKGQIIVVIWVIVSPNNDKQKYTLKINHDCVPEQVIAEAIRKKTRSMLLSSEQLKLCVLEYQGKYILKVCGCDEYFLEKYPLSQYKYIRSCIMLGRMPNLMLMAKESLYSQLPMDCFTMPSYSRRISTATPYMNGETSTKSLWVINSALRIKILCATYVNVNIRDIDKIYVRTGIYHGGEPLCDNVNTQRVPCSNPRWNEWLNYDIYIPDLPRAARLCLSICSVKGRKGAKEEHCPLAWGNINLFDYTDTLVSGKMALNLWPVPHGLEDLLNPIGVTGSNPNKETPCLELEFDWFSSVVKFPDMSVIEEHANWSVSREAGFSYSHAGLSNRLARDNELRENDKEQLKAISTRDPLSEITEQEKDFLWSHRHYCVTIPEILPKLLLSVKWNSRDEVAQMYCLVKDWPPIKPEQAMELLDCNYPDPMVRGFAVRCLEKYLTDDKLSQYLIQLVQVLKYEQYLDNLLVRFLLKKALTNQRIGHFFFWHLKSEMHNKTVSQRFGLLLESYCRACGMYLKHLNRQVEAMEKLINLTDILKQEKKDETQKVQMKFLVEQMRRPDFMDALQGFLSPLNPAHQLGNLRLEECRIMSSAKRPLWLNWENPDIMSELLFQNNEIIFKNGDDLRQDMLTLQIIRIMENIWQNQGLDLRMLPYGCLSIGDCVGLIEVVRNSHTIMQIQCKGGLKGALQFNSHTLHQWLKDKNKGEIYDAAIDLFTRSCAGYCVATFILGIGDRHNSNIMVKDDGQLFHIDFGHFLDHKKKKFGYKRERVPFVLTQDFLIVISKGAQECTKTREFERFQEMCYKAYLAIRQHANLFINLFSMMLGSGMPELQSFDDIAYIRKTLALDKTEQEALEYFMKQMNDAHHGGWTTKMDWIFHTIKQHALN
# T3 sequence (P27986 whole entry partner): as the sequence (P27986 whole entry partner) above
row,SMILES,IC50 [nM]
1,CC(C)N1CCC(Oc2nc([C@H](C)Nc3ccnc4ccnn34)cc3cccc(Cl)c23)CC1 [Compound 107],< 10000
2,CC(C)N1CCC(Oc2nc([C@H](C)Nc3ncnc4cccnc34)cc3cccc(Cl)c23)CC1 [Compound 108],< 10000
3,C[C@H](Nc1ncnc2scnc12)c1cc2cccc(Cl)c2c(C(=O)N2CCOCC2)n1 [Compound 116],< 10000
4,C[C@H](Nc1ncnc2ccccc12)c1cc2cccc(Cl)c2c(C(=O)N2CCOCC2)n1 [Compound 119],< 10000
5,C[C@H](Nc1ccnc2ccnn12)c1cc2cccc(Cl)c2c(C(=O)N2CCOCC2)n1 [Compound 120],< 10000
6,C[C@H](Nc1ncnc2scnc12)c1cc2cccc(Cl)c2c(OCCN2CCCC2)n1 [Compound 121],< 1000
7,CC(C)N1CCC(Oc2nc([C@H](C)Nc3ncnc4scnc34)cc3cccc(Cl)c23)CC1 [Compound 122],< 10000
8,C[C@H](Nc1ncnc2cccnc12)c1cc2cccc(Cl)c2c(C(=O)N2C3CCC2COC3)n1 [Compound 123],< 10000
9,C[C@H](Nc1ncnc2scnc12)c1cc2cccc(Cl)c2c(C(=O)N2C3CCC2COC3)n1 [Compound 124],< 10000
10,C[C@H](Nc1ccnc2ccnn12)c1cc2cccc(Cl)c2c(C(=O)N2C3CCC2COC3)n1 [Compound 125],> 10000
11,C[C@H](Nc1ncnc2[nH]cnc12)c1cc2cccc(Cl)c2c([S+]([O-])CCN2CCOCC2)n1 (stereo partly drawn) [Compound 129],< 10000
12,C[C@H](Nc1ncnc2[nH]cnc12)c1cc2cccc(Cl)c2c(SCCN2CCCC2)n1 [Compound 135],> 10000
13,C[C@H](Nc1ncnc2[nH]cnc12)c1cc2cccc(Cl)c2c([S+]([O-])CCN2CCCC2)n1 (stereo partly drawn) [Compound 136],< 10000
14,C[C@H](Nc1ncnc2scnc12)c1cc2cccc(Cl)c2c(C(=O)NC2CCOCC2)n1 [Compound 144],> 10000
15,Cc1cccc2cc([C@H](C)Nc3ncnc4[nH]cnc34)nc(OCCN3CCCC3)c12 [Compound 145],> 10000

# Biological target: T4, PI3Kβ (Homo sapiens, UniProt P42338)
# T4 construct: purchased Millipore Corporation 14-603-K
# Experiment: PI3 Kinase HTRF assay, PI3Kβ
# Type: biochemical
# Settings: 10 μM PIP2, 10 μM ATP; read-out: PI3K β IC50
# Procedure, shortened: as §1
# T4 sequence (P42338 whole entry): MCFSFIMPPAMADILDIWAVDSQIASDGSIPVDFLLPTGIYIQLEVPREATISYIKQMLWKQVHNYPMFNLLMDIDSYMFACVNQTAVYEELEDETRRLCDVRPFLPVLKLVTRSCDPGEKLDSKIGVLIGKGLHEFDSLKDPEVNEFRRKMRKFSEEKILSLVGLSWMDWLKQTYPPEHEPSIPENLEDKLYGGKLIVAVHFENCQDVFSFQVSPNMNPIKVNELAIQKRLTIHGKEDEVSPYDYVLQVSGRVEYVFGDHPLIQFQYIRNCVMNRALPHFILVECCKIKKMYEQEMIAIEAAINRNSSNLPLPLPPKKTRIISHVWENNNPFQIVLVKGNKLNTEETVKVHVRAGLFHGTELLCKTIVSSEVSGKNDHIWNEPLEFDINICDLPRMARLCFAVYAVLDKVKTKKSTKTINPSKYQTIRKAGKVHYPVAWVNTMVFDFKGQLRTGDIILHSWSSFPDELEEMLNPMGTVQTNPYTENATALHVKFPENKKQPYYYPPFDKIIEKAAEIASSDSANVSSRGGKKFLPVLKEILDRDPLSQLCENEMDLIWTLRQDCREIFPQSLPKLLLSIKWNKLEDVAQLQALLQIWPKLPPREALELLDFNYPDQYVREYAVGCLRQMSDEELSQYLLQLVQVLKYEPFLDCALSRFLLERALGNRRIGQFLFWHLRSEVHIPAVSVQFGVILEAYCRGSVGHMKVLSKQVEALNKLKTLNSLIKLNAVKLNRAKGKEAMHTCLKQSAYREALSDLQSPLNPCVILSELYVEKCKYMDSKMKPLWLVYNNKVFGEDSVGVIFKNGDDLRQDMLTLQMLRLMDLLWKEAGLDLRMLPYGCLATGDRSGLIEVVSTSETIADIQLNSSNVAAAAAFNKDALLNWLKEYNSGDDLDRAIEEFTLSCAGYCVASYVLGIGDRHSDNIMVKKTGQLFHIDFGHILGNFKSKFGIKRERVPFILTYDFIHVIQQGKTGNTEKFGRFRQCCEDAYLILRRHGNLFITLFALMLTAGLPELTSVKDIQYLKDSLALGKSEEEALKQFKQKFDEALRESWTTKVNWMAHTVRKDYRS
# T4 sequence (P27986 whole entry partner): as the sequence (P27986 whole entry partner) above
row,SMILES,IC50 [nM]
1,CC(C)N1CCC(Oc2nc([C@H](C)Nc3ccnc4ccnn34)cc3cccc(Cl)c23)CC1 [Compound 107],< 10000
2,CC(C)N1CCC(Oc2nc([C@H](C)Nc3ncnc4cccnc34)cc3cccc(Cl)c23)CC1 [Compound 108],> 10000
3,C[C@H](Nc1ncnc2scnc12)c1cc2cccc(Cl)c2c(C(=O)N2CCOCC2)n1 [Compound 116],< 1000
4,C[C@H](Nc1ncnc2ccccc12)c1cc2cccc(Cl)c2c(C(=O)N2CCOCC2)n1 [Compound 119],> 10000
5,C[C@H](Nc1ccnc2ccnn12)c1cc2cccc(Cl)c2c(C(=O)N2CCOCC2)n1 [Compound 120],< 10000
6,C[C@H](Nc1ncnc2scnc12)c1cc2cccc(Cl)c2c(OCCN2CCCC2)n1 [Compound 121],< 1000
7,CC(C)N1CCC(Oc2nc([C@H](C)Nc3ncnc4scnc34)cc3cccc(Cl)c23)CC1 [Compound 122],< 10000
8,C[C@H](Nc1ncnc2cccnc12)c1cc2cccc(Cl)c2c(C(=O)N2C3CCC2COC3)n1 [Compound 123],< 10000
9,C[C@H](Nc1ncnc2scnc12)c1cc2cccc(Cl)c2c(C(=O)N2C3CCC2COC3)n1 [Compound 124],< 1000
10,C[C@H](Nc1ccnc2ccnn12)c1cc2cccc(Cl)c2c(C(=O)N2C3CCC2COC3)n1 [Compound 125],< 10000
11,C[C@H](Nc1ncnc2[nH]cnc12)c1cc2cccc(Cl)c2c([S+]([O-])CCN2CCOCC2)n1 (stereo partly drawn) [Compound 129],< 1000
12,C[C@H](Nc1ncnc2[nH]cnc12)c1cc2cccc(Cl)c2c(SCCN2CCCC2)n1 [Compound 135],< 10000
13,C[C@H](Nc1ncnc2[nH]cnc12)c1cc2cccc(Cl)c2c([S+]([O-])CCN2CCCC2)n1 (stereo partly drawn) [Compound 136],< 10000
14,C[C@H](Nc1ncnc2scnc12)c1cc2cccc(Cl)c2c(C(=O)NC2CCOCC2)n1 [Compound 144],> 10000
15,Cc1cccc2cc([C@H](C)Nc3ncnc4[nH]cnc34)nc(OCCN3CCCC3)c12 [Compound 145],< 10000

# System: Balb/c splenic B cells
# Experiment: B cell activation and proliferation assay (Alamar Blue)
# Type: cell-based
# Settings: Mus musculus, read-out: B cell prolif. IC50
# Method: The ability of one or more subject compounds to inhibit B cell activation and proliferation is determined according to standard procedures known in the art. For example, an in vitro cellular proliferation assay is established that measures the metabolic activity of live cells. The assay is performed in a 96 well microtiter plate using Alamar Blue reduction. Balb/c splenic B cells are purified over a Ficoll-Paque™ PLUS gradient followed by magnetic cell separation using a MACS B cell Isolation Kit (Miletenyi). Cells are plated in 90 ul at 50,000 cells/well in B Cell Media (RPMI+10% FBS+Penn/Strep+50 uM bME+5 mM HEPES). A compound disclosed herein is diluted in B Cell Media and added in a 10 μl volume. Plates are incubated for 30 min at 37 C and 5% CO2 (0.2% DMSO final concentration). A 50 μl B cell stimulation cocktail is then added containing either 10 ug/ml LPS or 5 ug/ml F(ab′)2 Donkey anti-mouse IgM plus 2 ng/ml recombinant mouse IL4 in B Cell Media. Plates are incubated for 72 hours at 37° C. and 5% CO2. A volume of 15 μl of Alamar Blue reagent is added to each well and plates are incubated for 5 hours at 37 C and 5% CO2. Alamar Blue fluoresce is read at 560Ex/590Em, and IC50 or EC50 values are calculated using GraphPad Prism 5.
row,SMILES,IC50 [nM]
1,CC(C)N1CCC(Oc2nc([C@H](C)Nc3ccnc4ccnn34)cc3cccc(Cl)c23)CC1 [Compound 107],< 100
2,CC(C)N1CCC(Oc2nc([C@H](C)Nc3ncnc4cccnc34)cc3cccc(Cl)c23)CC1 [Compound 108],< 1000
3,C[C@H](Nc1ncnc2scnc12)c1cc2cccc(Cl)c2c(C(=O)N2CCOCC2)n1 [Compound 116],< 100
4,C[C@H](Nc1ncnc2ccccc12)c1cc2cccc(Cl)c2c(C(=O)N2CCOCC2)n1 [Compound 119],< 1000
5,C[C@H](Nc1ccnc2ccnn12)c1cc2cccc(Cl)c2c(C(=O)N2CCOCC2)n1 [Compound 120],< 100
6,C[C@H](Nc1ncnc2scnc12)c1cc2cccc(Cl)c2c(OCCN2CCCC2)n1 [Compound 121],< 100
7,CC(C)N1CCC(Oc2nc([C@H](C)Nc3ncnc4scnc34)cc3cccc(Cl)c23)CC1 [Compound 122],< 1000
8,C[C@H](Nc1ncnc2cccnc12)c1cc2cccc(Cl)c2c(C(=O)N2C3CCC2COC3)n1 [Compound 123],< 100
9,C[C@H](Nc1ncnc2scnc12)c1cc2cccc(Cl)c2c(C(=O)N2C3CCC2COC3)n1 [Compound 124],< 100
10,C[C@H](Nc1ccnc2ccnn12)c1cc2cccc(Cl)c2c(C(=O)N2C3CCC2COC3)n1 [Compound 125],< 100
11,C[C@H](Nc1ncnc2[nH]cnc12)c1cc2cccc(Cl)c2c([S+]([O-])CCN2CCOCC2)n1 (stereo partly drawn) [Compound 129],< 1000
12,C[C@H](Nc1ncnc2[nH]cnc12)c1cc2cccc(Cl)c2c(SCCN2CCCC2)n1 [Compound 135],< 1000
13,C[C@H](Nc1ncnc2[nH]cnc12)c1cc2cccc(Cl)c2c([S+]([O-])CCN2CCCC2)n1 (stereo partly drawn) [Compound 136],< 100
14,C[C@H](Nc1ncnc2scnc12)c1cc2cccc(Cl)c2c(C(=O)NC2CCOCC2)n1 [Compound 144],< 100
15,Cc1cccc2cc([C@H](C)Nc3ncnc4[nH]cnc34)nc(OCCN3CCCC3)c12 [Compound 145],< 100
